Measurements: US20130338190A1, “PHARMACEUTICALLY ACCEPTABLE SALT OF (E)-N-[4-[[3-CHLORO-4-(2-PYRIDYLMETHOXY)PHENYL]AMINO]-3-CYANO-7-ETHOXY-6-QUINOLYL]-3-[(2R)-1-METHYLPYRROLIDIN-2-YL]PROP-2-ENAMIDE, PREPARATION METHOD THEREOF, AND MEDICAL USE THEREOF” (priority 2011, published 2013)
In brackets after ≈: the same amount, converted by molar mass. Read-outs that look alike come from different tables or passages of the source.

Key:
[1] = system: human carcinoma SK-BR-3 cells, which have high expression of HER-2; assay: HER-2 cell activity assay (SRB, 96 hours); assay type: cell-based
From the text: The following in vitro assay was to determine the activity of the compounds of the present invention for inhibiting the proliferation of human carcinoma SK-BR-3 cells, which have high expression of HER-2.
The following in vitro assay was to determine the activity of the test compounds for inhibiting the angiogenesis and proliferation of cancer cells, which have high expression of HER-2. The activity is represented by the IC50 value. The general procedure of the assay was as follows: the cancer cells line SK-BR-3 highly expressing HER-2 was chosen and the cells were seeded in a 96-well cell culture plate at a suitable density. The cells then were incubated in a carbon dioxide incubator until they reached 60% confluence. Then, the cell culture medium was replaced by fresh medium with the test compounds at various concentrations (6 to 7 concentrations). The cells were put back in the incubator and cultured continuously for 96 hours. The activity of the test compounds for inhibiting the cell proliferation was determined by using a Sulforhodamine B (SRB) method. IC50 values of test cells were calculated by the rate of inhibition at various concentrations of the test compounds.

HER-2 kinase = HER-2 kinase (Homo sapiens, UniProt P04626); assay: HER-2 kinase activity assay (time-resolved fluorescence); assay type: biochemical; conditions: table of the HER-2 kinase activity assay; human-derived recombinant HER-2 kinase, 20 μM ATP, 25° C., 45 minutes; read-out: IC50 (HER-2/SK-BR-3)
Chain of HER-2 kinase (P04626 23-1255): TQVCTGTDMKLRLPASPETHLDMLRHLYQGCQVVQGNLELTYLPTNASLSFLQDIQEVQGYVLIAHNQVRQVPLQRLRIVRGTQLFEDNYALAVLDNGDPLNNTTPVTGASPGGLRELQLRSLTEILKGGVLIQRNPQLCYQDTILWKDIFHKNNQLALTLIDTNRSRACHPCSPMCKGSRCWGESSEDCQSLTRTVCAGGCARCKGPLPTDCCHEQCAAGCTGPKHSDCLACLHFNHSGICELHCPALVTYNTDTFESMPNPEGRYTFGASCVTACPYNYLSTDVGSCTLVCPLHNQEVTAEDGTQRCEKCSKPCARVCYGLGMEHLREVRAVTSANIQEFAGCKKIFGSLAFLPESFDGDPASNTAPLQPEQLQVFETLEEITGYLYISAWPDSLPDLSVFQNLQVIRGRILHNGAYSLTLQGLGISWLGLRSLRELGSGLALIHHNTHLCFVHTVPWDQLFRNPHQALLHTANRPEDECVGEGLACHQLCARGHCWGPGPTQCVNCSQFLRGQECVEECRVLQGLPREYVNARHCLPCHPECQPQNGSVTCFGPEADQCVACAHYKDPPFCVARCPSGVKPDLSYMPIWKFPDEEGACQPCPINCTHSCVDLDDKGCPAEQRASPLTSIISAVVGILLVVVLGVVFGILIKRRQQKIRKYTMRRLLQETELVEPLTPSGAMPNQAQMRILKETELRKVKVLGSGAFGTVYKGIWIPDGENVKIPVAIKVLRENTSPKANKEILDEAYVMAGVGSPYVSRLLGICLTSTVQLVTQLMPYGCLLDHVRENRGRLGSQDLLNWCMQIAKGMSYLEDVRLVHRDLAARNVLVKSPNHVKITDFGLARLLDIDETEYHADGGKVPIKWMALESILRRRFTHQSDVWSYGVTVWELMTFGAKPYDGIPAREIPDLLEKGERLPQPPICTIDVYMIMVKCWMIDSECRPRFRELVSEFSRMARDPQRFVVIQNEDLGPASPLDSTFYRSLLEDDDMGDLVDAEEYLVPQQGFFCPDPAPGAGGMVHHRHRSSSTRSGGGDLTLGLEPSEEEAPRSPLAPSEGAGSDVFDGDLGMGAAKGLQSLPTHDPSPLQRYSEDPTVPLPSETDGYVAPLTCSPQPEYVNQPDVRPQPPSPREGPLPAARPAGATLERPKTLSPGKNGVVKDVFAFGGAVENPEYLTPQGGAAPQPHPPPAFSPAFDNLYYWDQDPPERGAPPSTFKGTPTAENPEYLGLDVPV
Experimental: The in vitro HER-2 kinase activity was tested by the following assay.
The following assay was used to determine the activity of the compounds of the present invention for inhibiting HER-2 kinase. The half maximal inhibitory concentration IC50 (the concentration of the test compound showing 50% inhibition of the enzyme activity) of each compound was determined by incubating several different concentrations of the test compounds with a specific enzyme and substrate. […] The HER-2 kinase activity was determined by using a time-resolved fluorescence method.

Solubility assay [2] = assay type: physicochemical
Experimental: According to the conventional solubility measurement, the solubility of a compound of formula (I) and salts thereof was determined in three different systems: water, physiological saline and methanol.

[3] = Pharmacokinetics assay in rats (LC/MS/MS of plasma); assay type: in vivo, Sprague Dawley (SD) rats; conditions: rat; for Vd/F: read-out: Vz/F
Experimental: The rats were used as test animals. The compound of formula (I) and other salts thereof were administrated intragastrically, and a maleate salt of the compound of formula (I) was injected into the tail vein to determine the drug concentration in plasma at different time points by an LC/MS/MS method. The pharmacokinetic behavior, characteristics and the oral absolute bioavailability of the present compounds were studied and evaluated in rats. […] 28 healthy adult Sprague Dawley (SD) rats, half male and half female, were purchased from SINO-BRITSH SIPPR/BK LAB. ANIMAL LTD., CO, License number: SCXK (Shanghai) 2008-0016, and divided into 7 groups (4 rats in each group). The intravenous injection group: a suitable amount of compounds was weighed, dissolved in DMSO and diluted with normal saline to the final volume. […] healthy adult SD rats, half male and half female, were divided into 7 groups (4 rats in each group). […] For the intravenous injection group, blood samples (0.2 mL) were taken from orbital sinus before administration and at 2 min, 15 min, 30 min, 1.0 […] and 36.0 h after administration, stored in heparinized tubes and centrifuged for 10 minutes at 3,500 rpm to separate blood plasma. The plasma samples were stored at -20° C. For the intragastrical administration group, blood samples were taken before administration and at 0.5, 1.0, 2.0, 3.0, 4.0, 6.0, 8.0, 12.0, 24.0 and 36.0 hours after administration. The method to treat the samples was the same as with the intravenous injection group. The rats were fed 2 hours after administration.

Solubility assay [4] = assay type: physicochemical; conditions: for solubility: 0.1 M hydrochloric acid, simulated gastric fluid
[5] = system: human epidermoid carcinoma A431 cells, which have high expression of EGFR; assay: EGFR cell proliferation inhibition assay (SRB, 72 hours); assay type: cell-based; conditions: read-out: IC50 (EGFR/A431)
Experimental: The activity is represented by the IC50 value. The general procedures of the assay were as follows: the cancer cells A431 highly expressing EGFR were chosen and seeded in a 96-well cell culture plate at a suitable density (e.g., 5000 cells/mL medium). The cells were then incubated in a carbon dioxide incubator until they reached 85% confluence. Then, the cell culture medium was replaced by fresh medium containing the test compounds with serial dilutions (general 6 to 7 concentrations). The cells were put back in the incubator and cultured continuously for 72 hours. The activity of the test compounds for inhibiting the cell proliferation was determined by using a Sulforhodamine B (SRB) method. IC50 values were calculated by the rate of inhibition at various concentrations of the test compounds.

[6] = physiological saline, saline or isotonic, physiological saline, read-out: Solubility Value, Physiological saline
[7] = both sexes, Sprague-Dawley, plasma, iv, 25 mg/kg, vein (tail vein injection)
[8] = both sexes, Sprague-Dawley, plasma, iv, 25 mg/kg, vein (tail vein injection), read-out: AUC0-t
[9] = both sexes, Sprague-Dawley, plasma, iv, 25 mg/kg, vein (tail vein injection), read-out: MRT
[10] = vein (tail vein injection), 25 mg/kg
[11] = both sexes, Sprague-Dawley, plasma, po, 25 mg/kg, gavage
[12] = both sexes, Sprague-Dawley, plasma, po, 25 mg/kg, gavage, read-out: AUC0-t
[13] = both sexes, Sprague-Dawley, plasma, po, 25 mg/kg, gavage, read-out: Cmax
[14] = both sexes, Sprague-Dawley, plasma, po, 25 mg/kg, gavage, read-out: MRT
[15] = vein (tail vein injection), 25 mg/kg, dimaleate
[16] = water, read-out: Solubility Value, Water
[17] = gavage, 25 mg/kg, dimethanesulfonate
[18] = vein (tail vein injection), 25 mg/kg, dimethanesulfonate
[19] = gavage, 25 mg/kg, trimethanesulphonate
[20] = vein (tail vein injection), 25 mg/kg, trimethanesulphonate

## CCOc1cc2ncc(C#N)c(Nc3ccc(OCc4ccccn4)c(Cl)c3)c2cc1NC(=O)/C=C/[C@H]1CCCN1C.O=C(O)/C=C\C(=O)O [Example 1, (E)-N-[4-[[3-chloro-4-(2-pyridylmethoxy)phenyl]amino]-3-cyano-7-ethoxy-6-quinolyl]-3-[(2R)-1-methylpyrrolidin-2-yl]prop-2-enamide maleate]
[1]; read-out: IC50 (HER-2/SK-BR-3), maleate
  IC50: 64 nM
HER-2 kinase
  IC50: 53 nM
Solubility assay [2]; [6]
  solubility: 0.19 mg/mL
[3]; [7]
  half-life: 4.92 ± 0.6 h
[3]; [8]
  AUC(0-t): 222 ± 77 µg·h/mL
[3]; [9]
  MRT: 5.5 ± 0.99 h
[3]; gavage, 25 mg/kg, maleate
  AUC(0-t): 104.58 ± 56.54 µg·h/mL
  Cmax: 8990 ± 4870 ng/mL
  MRT: 8.93 ± 1.39 h
  t1/2: 4.4 ± 1.3 h
[3]; oral absolute bioavailability, 25 mg/kg (calculated by the base part), maleate
  F (%): 47.1%
Solubility assay [4]; maleate
  Solubility Value, 0.1M Hydrochloric acid: 23.33 mg/mL
Solubility assay [4]; water, maleate
  Solubility Value, Water: 12.49 mg/mL

## CCOc1cc2ncc(C#N)c(Nc3ccc(OCc4ccccn4)c(Cl)c3)c2cc1NC(=O)/C=C/[C@H]1CCCN1C [Example 1f, (E)-N-[4-[[3-chloro-4-(2-pyridylmethoxy)phenyl]amino]-3-cyano-7-ethoxy-6-quinolyl]-3-[(2R)-1-methylpyrrolidin-2-yl]prop-2-enamide]
[1]; Homo sapiens, SK-BR-3, 96 h, read-out: IC50 (HER-2/SK-BR-3)
  IC50: 59 nM
HER-2 kinase
  IC50: 65 nM
Solubility assay [2]; water
  Solubility Value, Water: 0.008 mg/mL (≈ 13.7 µM)
[3]; gavage, 25 mg/kg
  AUC(0-t): 52.81 ± 23.59 µg·h/mL
[3]; oral absolute bioavailability, 25 mg/kg (calculated by the base part)
  F (%): 42.2%
[3]; [10]
  AUC(0-t): 125.4 ± 38.95 µg·h/mL
  MRT: 4.22 ± 0.71 h
  t1/2: 5.25 ± 2.01 h
Solubility assay [4]
  Solubility Value, 0.1M Hydrochloric acid: 1.43 mg/mL (≈ 2450 µM)
  Solubility Value, Physiological saline: 0.0026 mg/mL
Solubility assay [4]; conventional solvents
  solubility in conventional solvents (in words): poorly soluble

## CCOc1cc2ncc(C#N)c(Nc3ccc(OCc4ccccn4)c(Cl)c3)c2cc1NC(=O)/C=C/[C@H]1CCCN1C.O=C(O)/C=C\C(=O)O [Example 2, (E)-N-[4-[[3-chloro-4-(2-pyridylmethoxy)phenyl]amino]-3-cyano-7-ethoxy-6-quinolyl]-3-[(2R)-1-methylpyrrolidin-2-yl]prop-2-enamide dimaleate]
[5]; Homo sapiens, A-431, 72 h
  IC50: 31 nM
HER-2 kinase
  IC50: 28 nM
Solubility assay [2]; water, dimaleate
  Solubility Value, Water: 1.52 mg/mL
[3]; [11]
  CL/F: 4.83 mL/min/kg
  half-life: 4.45 ± 1.63 h
  Vd/F: 1.84 ± 1.19 L/kg
[3]; [12]
  AUC(0-t): 116 ± 67.2 µg·h/mL
[3]; [13]
  Cmax: 10200 ± 4410 ng/mL
[3]; [14]
  MRT: 8.03 ± 0.99 h
[3]; both sexes, Sprague-Dawley, plasma, po, 25 mg/kg, oral absolute bioavailability, 25 mg/kg (calculated by the base part)
  bioavailability: 48.3%
[3]; [15]
  MRT: 2.96 ± 0.47 h
  t1/2: 3.74 ± 1.20 h
Solubility assay [4]; dimaleate
  Solubility Value, 0.1M Hydrochloric acid: 54.88 mg/mL
  Solubility Value, Physiological saline: 0.36 mg/mL

## CCOc1cc2ncc(C#N)c(Nc3ccc(OCc4ccccn4)c(Cl)c3)c2cc1NC(=O)/C=C/[C@H]1CCCN1C.O=C(O)C[C@H](O)C(=O)O [Example 3, (E)-N-[4-[[3-chloro-4-(2-pyridylmethoxy)phenyl]amino]-3-cyano-7-ethoxy-6-quinolyl]-3-[(2R)-1-methylpyrrolidin-2-yl]prop-2-enamide L-malate]
[5]; A431 cells, 72 hours, SRB, L-malate
  IC50: 29 nM
[1]; L-malate, read-out: IC50 (HER-2/SK-BR-3)
  IC50: 56 nM
HER-2 kinase
  IC50: 71 nM
Solubility assay [2]; [6]
  solubility: 0.08 mg/mL
Solubility assay [2]; [16]
  solubility: 17.2 mg/mL
Solubility assay [4]
  solubility: 12.7 mg/mL

## CCOc1cc2ncc(C#N)c(Nc3ccc(OCc4ccccn4)c(Cl)c3)c2cc1NC(=O)/C=C/[C@H]1CCCN1C.CS(=O)(=O)O [Example 4, (E)-N-[4-[[3-chloro-4-(2-pyridylmethoxy)phenyl]amino]-3-cyano-7-ethoxy-6-quinolyl]-3-[(2R)-1-methylpyrrolidin-2-yl]prop-2-enamide methanesulfonate]
[3]; [7]
  half-life: 3.77 ± 0.22 h
[3]; [8]
  AUC(0-t): 146 ± 40.4 µg·h/mL
[3]; [9]
  MRT: 5.46 ± 0.48 h
[3]; [11]
  CL/F: 5.33 mL/min/kg
  half-life: 3.67 ± 0.83 h
  Vd/F: 1.6 ± 0.54 L/kg
[3]; [12]
  AUC(0-t): 92.3 ± 37 µg·h/mL
[3]; [13]
  Cmax: 6920 ± 1820 ng/mL
[3]; [14]
  MRT: 8.4 ± 0.65 h
[3]; oral absolute bioavailability, 25 mg/kg (calculated by the base part), methanesulfonate
  F (%): 63.2%

## CCOc1cc2ncc(C#N)c(Nc3ccc(OCc4ccccn4)c(Cl)c3)c2cc1NC(=O)/C=C/[C@H]1CCCN1C.CS(=O)(=O)O [Example 5, (E)-N-[4-[[3-chloro-4-(2-pyridylmethoxy)phenyl]amino]-3-cyano-7-ethoxy-6-quinolyl]-3-[(2R)-1-methylpyrrolidin-2-yl]prop-2-enamide dimethanesulfonate]
[3]; [17]
  AUC(0-t): 81.53 ± 40.46 µg·h/mL
  Cmax: 7880 ± 2510 ng/mL
  MRT: 7.95 ± 0.61 h
  t1/2: 3.46 ± 0.56 h
[3]; oral absolute bioavailability, 25 mg/kg (calculated by the base part), dimethanesulfonate
  F (%): 72.1%
[3]; [18]
  AUC(0-t): 112.84 ± 62.1 µg·h/mL
  MRT: 4.2 ± 0.99 h
  t1/2: 3.12 ± 0.37 h

## CCOc1cc2ncc(C#N)c(Nc3ccc(OCc4ccccn4)c(Cl)c3)c2cc1NC(=O)/C=C/[C@H]1CCCN1C.CS(=O)(=O)O [Example 6, (E)-N-[4-[[3-chloro-4-(2-pyridylmethoxy)phenyl]amino]-3-cyano-7-ethoxy-6-quinolyl]-3-[(2R)-1-methylpyrrolidin-2-yl]prop-2-enamide trimethanesulphonate]
[3]; [19]
  AUC(0-t): 81.72 ± 22.16 µg·h/mL
  Cmax: 6270 ± 1580 ng/mL
  MRT: 8.59 ± 0.22 h
  t1/2: 4.15 ± 0.09 h
[3]; oral absolute bioavailability, 25 mg/kg (calculated by the base part), trimethanesulphonate
  F (%): 50.5%
[3]; [20]
  AUC(0-t): 162.28 ± 55.65 µg·h/mL
  MRT: 4.94 ± 0.58 h
  t1/2: 5.27 ± 0.29 h

## CCOc1cc2ncc(C#N)c(Nc3ccc(OCc4ccccn4)c(Cl)c3)c2cc1NC(=O)/C=C/[C@H]1CCCN1C.O=C(O)CCC(=O)O [Example 8, (E)-N-[4-[[3-chloro-4-(2-pyridylmethoxy)phenyl]amino]-3-cyano-7-ethoxy-6-quinolyl]-3-[(2R)-1-methylpyrrolidin-2-yl]prop-2-enamide succinate]
[5]; A431 cells, 72 hours, SRB, succinate
  IC50: 15 nM
[1]; succinate, read-out: IC50 (HER-2/SK-BR-3)
  IC50: 78 nM
HER-2 kinase
  IC50: 53 nM
Solubility assay [2]; [6]
  solubility: 3.32 mg/mL
Solubility assay [2]; [16]
  solubility: 22.4 mg/mL
Solubility assay [4]
  solubility: 32.4 mg/mL
